Test results from patent publication US11857634B2, “Cationic amphiphilic polymers for codelivery of hydrophobic agents and nucleic acids” (University of Pittsburgh—Of the Commonwealth System of …, priority 2018, dated 2024).
In brackets after ≈: the same amount, converted by molar mass. Entries after “also recorded” stand apart in the source; their conditions may differ.

Tests used:
[1] = DOX release from POEG-PCre micelles by dialysis against DPBS; assay type: physicochemical; conditions: first 4 h, DPBS pH 7.4, 37 °C
Method: The release kinetics of DOX from DOX-loaded POEG-PCre micelles was investigated by dialysis against DPBS of pH 7.4 at 37° C. […] To the contrary, only 16% of DOX was released from DOX/POEG-PCre micelles in first 4 h, and less than 40% of DOX was released for an extended period of 96 h.

4T1.2 cancer cells = assay: Cell migration, wound closure assay; assay type: cell-based, murine; conditions: 4T1.2, 24 h
Description: Besides cancer cell viability, cell migration represents a critical process for tumor progression and metastasis. MiR-34a has been reported to be functional as an anti-metastatic miRNA by directly targeting CD44 and NOTCH-1. Therefore, the effect of tRNA-mir-34a and DOX co-loaded nanocomplexes on the cell migration was investigated using the wound closure assay.

[2] = Toxicity: body weight, blood chemistry, H&E staining of major organs; set-up: species or system mice; conditions: mouse, in vivo
Method: In addition, blood chemistry tests were performed to evaluate the effect of our formulations on liver and kidney functions. […] Moreover, the H & E staining of major organs was carried out to further evaluate the potential toxicity of different treatments.

[3] = test system: immune cells in tumor-bearing lungs; assay: Immune cells in tumor-bearing lungs (POEG-PCre formulations); set-up: species or system mice; conditions: mouse, in vivo
Description: Treatment with tRNA-mir-34a alone or tRNA-mir-34a/DOX combination reduced the numbers of PD1+ CD8 cells (FIG. 16D) and T-regulatory cells (Tregs) (FIG. 16E).

breast cancer cells = assay: Apoptosis assay, Annexin V/propidium iodide flow cytometry; assay type: cell-based
Method: The enhanced cytotoxicity of DOX+tRNA-mir-34a-co-loaded nanocomplexes was assessed via apoptosis assay. Cell apoptosis was evaluated quantitatively by Annexin V/propidium iodide flow cytometry.

4T1.2 tumor metastasis = assay: Breast cancer lung metastasis model (4T1.2), POEG-PCre formulations; assay type: in vivo, mice; conditions: i.v. every 3 d for 3 times, analysed 5 days after last treatment
Method: The in vivo anti-tumor efficacy of DOX+tRNA-mir-34a co-loaded nanocomplexes was evaluated in a breast cancer lung metastasis model, generated by tail-vein injection of 4T1.2 tumor cells into female Balb/c mice. Five days after tumor inoculation, various treatments were applied to each group of mice (n=5) via i.v. administration every 3 d for 3 times. The tumor burdens in the lungs were analyzed 5 days after the last treatment. […] No significant decrease of body weight was observed, indicating the safety of the formulation (FIG. 15C).
To further confirm the anticancer efficacy, H&E staining and immunohistochemical analysis of Ki67 were performed in tumor-bearing lungs.

[4] = test system: 4T1.2 breast cancer lung metastasis; assay: Mouse model of breast cancer lung metastasis (4T1.2), POEG-st-Pmor formulations; assay type: in vivo, mice; conditions: i.v. every three days for three times; DOX 5 mg/kg, plasmid 50 μg per mouse
Method: Mouse model of breast cancer lung metastasis. Female Balb/c mice were injected with 2×10^5 4 T1.2 cells through the tail vein. Five days after tumor cell injection, mice were randomly divided into 6 groups. POEG-st-Pmor was chosen as a representative carrier system for codelivery of IL-36γ plasmid and DOX. […] The PBS treatment group was used as control. DOX dosage was 5 mg/kg and plasmid dosage was 50 μg per mouse. Lung tissues were harvested and weighted 11 days after the first injection. Pulmonary metastases were enumerated by intra-tracheal injection of India ink solution. India ink-injected lungs were washed in Feket's solution (300 ml 70% EtOH, 30 ml 37% formaldehyde and 5 ml glacial acetic acid) and white tumor nodules against a dark blue lung background were counted.
Histopathological analysis. The lung tissues were harvested and fixed in 10% formalin after the above treatments. The fixed samples were then embedded in paraffin and the tissue sections were stained with hematoxylin/eosin and analyzed for the presence of metastases under microscope. The total number of metastases per lung section was counted in different treatment groups.

4T1.2 cells [5] = assay: Intracellular co-delivery of DOX and MFP488-labeled tRNA-mir-34a, confocal microscopy; assay type: cell-based, murine; conditions: 4 h
Method: To monitor intracellular co-delivery of DOX and tRNA-mir-34a, tRNA-mir-34a was labeled with MFP488 fluorescent dye to visualize the cell uptake of tRNA-mir-34a along with red fluorescence of DOX. 4T1.2 cells were incubated for 4 h with micelle complexes carrying DOX and/or MFP488-labeled tRNA-mir-34a and then observed under a confocal microscope. Naked tRNA-mir-34a without any transfection agent was used as a negative control.

[6] = In vitro DOX release from POEG-st-Pmor micelles by dialysis; assay type: physicochemical; conditions: first 4 hours, PBS, 37 °C
Method: In vitro drug release study for POEG-st-Pmor micelles. The in vitro DOX release kinetics for the POEG-st-Pmor micelles was determined by a dialysis method. Briefly, 0.5 ml of DOX-loaded micelles and micelles co-loaded with DOX and IL-36γ plasmid at a DOX concentration of 0.5 mg/mL were placed into a dialysis bag (MW cutoff 3,500), respectively. The dialysis bag was incubated in 100 mL PBS with gentle shaking at 37° C. Two ml of PBS solution outside of the dialysis bag was collected at different time points and equal amount of fresh PBS was added back. The concentrations of released DOX were determined by HPLC.

[7] = Intracellular uptake and distribution of DOX at pH 6.8 and 7.4, CLSM; assay type: cell-based; conditions: 4 h incubation
Description: Intracellular uptake and distribution of DOX-loaded micelles and IL-12/DOX co-loaded PMet-P(cdmPEG2K) micelleplexes was investigated by CLSM.

[8] = test system: 4T1.2 breast cancer cells; assay: In vitro cytotoxicity, MTT assay (POEG-st-Pmor formulations); conditions: 4T1.2 cells, 72 h
Method: Briefly, 4T1.2 cells (2,000 cells/well) were seeded in 96-well plates for overnight and were treated with various concentrations of DOX formulations for 72 h. MTT solution was added to each well and MTT formazan was solubilized by DMSO after 2 h of incubation. The absorbance in each well was measured by a microplate reader at a wavelength of 570 nm. Cell viability was calculated as [(ODtreat−ODblank)/(ODcontrol−ODblank)×100%]. The cytotoxicity of POEG-st-Pmor micelles alone was similarly tested in 4T1.2 cells as described above.

[9] = Cellular uptake of DOX by confocal laser scanning microscopy (POEG-st-Pmor); assay type: cell-based; conditions: 2 h of incubation
Description: The cellular uptake of DOX-loaded POEG-st-Pmor micelles was investigated by confocal laser scanning microscopy with free DOX as a control. […] This may, for example, be a result of different cellular uptake routes of free DOX and DOX micelles.

Dicer = assay: Induction of Dicer after treatment; assay type: cell-based; conditions: dose dependent
4T1.2 cells [10] = assay: In vitro cytotoxicity, MTT assay (POEG-PCre formulations); assay type: cell-based, murine; conditions: 48 h; DOX 7.8-1,000 ng/mL, tRNA-mir 0.78-100 nM, carrier 78-10000 ng/mL
Method: The in vitro cytotoxicity of DOX+tRNA-mir-34a co-loaded POEG-PCre micelles was evaluated by MTT assay. Tumor cells were treated with various formulations for 48 h, with the doses of DOX, tRNA-mir, and POEG-PCre carrier ranging from 7.8 to 1,000 ng/mL, 0.78 nM to 100 nM, and 78 ng/mL to 10000 ng/mL, respectively. […] A similar trend was also observed in MDA-MB-231 breast cancer cells (FIG. 14B).

[11] = test system: immune cells in lung tissues; assay: Tumor-infiltrating lymphocytes and MDSCs in tumor-bearing lungs, flow cytometry (POEG-st-Pmor); assay type: in vivo, mice; conditions: compared to untreated control group
Method: Analysis of tumor-infiltrating lymphocytes and myeloid-derived suppressor cells. Lung tissues were collected in serum free RPMI medium and cut mechanically with scissors. Liberase TL (0.3 mg/ml) and DNase I (0.3 mg/ml) were used to digest the lung tissues and tumor nodules. Tissues were further grinded and filtered through a […] cell strainer. TILs and MDSC cells were further purified and stained with fluorescence-labeled antibody for flow cytometry analysis using a FACS flow cytometer.

COc1cccc2c1C(=O)c1c(O)c3c(c(O)c1C2=O)C[C@@](O)(C(=O)CO)C[C@@H]3O[C@H]1C[C@H](N)[C@H](O)[C@H](C)O1 [free DOX, Doxorubicin]
DOX released [1]: more than 80%
Inhibition of cell migration (4T1.2 cancer cells): ~40%
Pathological changes, H&E staining of major organs [2]: signs of myocytolysis and myofibrillolysis with fibrils dearrangement; also recorded: hepatocellular vacuolation
Numbers of CD4 cells in tumor-bearing lungs [3]: significant increase
Numbers of CD8 cells in tumor-bearing lungs [3]: significant increase
Numbers of MDSC [3]: trend of decreases
Numbers of functional CD8 (IFN-γ+ CD8) cells [3]: trend of increase
Cell apoptosis (breast cancer cells): ~31%
Inhibition of lung metastasis / tumor nodules in lungs (4T1.2 tumor metastasis): Dramatic reduction in the number of tumor nodules
Antitumor activity / inhibition of lung metastasis [4]: significant inhibition of lung metastasis; also recorded: significant activity
Intracellular location of fluorescence signals (4T1.2 cells [5]): largely found in the nucleus
DOX released [6]: 80%
Cellular uptake compared with DOX-loaded micelles [7]: slightly stronger fluorescence signal
Intracellular DOX fluorescence at pH 6.8 versus pH 7.4 [7]: not significantly affected by pH
Cytotoxicity ([8]; DOX 4 to 1000 ng/mL): dose-dependent cell killing profile
IC50 ([8]; MTT, as DOX): 0.13 µg/mL (≈ 0.239 µM)
Intracellular location of DOX signals [9]: largely found in the nucleus
Dicer expression (Dicer): induction of Dicer
Cell growth inhibition / cytotoxicity (4T1.2 cells [10]): inhibited the proliferation of tumor cells in a dose dependent manner
CD4+ T cells in lung tissues [11]: significant increase
CD8+ T cells in lung tissues [11]: significant increase
